Assay results published in patent US20250215013A1, “SUBSTITUTED TRICYCLIC COMPOUNDS AS PARP INHIBITORS AND THE USE THEREOF” (IMPACT THERAPEUTICS (SHANGHAI), INC., priority 2022, published 2025).

What was measured:
[1] = target: recombinant poly(ADP-ribose) polymerase 1 (PARP1) (Homo sapiens (Human), UniProt P09874)
[2] = target: recombinant poly(ADP-ribose) polymerase 2 (PARP2); assay: PARP2 chemiluminescent assay; assay type: biochemical; details: inhibition of PARP2 enzyme activity, chemiluminescence
MDA-MB-436 cells = assay: Growth inhibition assay against BRCA mutant human breast cancer MDA-MB-436 cell line (CCK-8); assay type: cell-based; details: Homo sapiens, MDA-MB-436, […], proliferation of MDA-MB-436 cells, 7 days

Chain of recombinant poly(ADP-ribose) polymerase 1 (PARP1) (P09874 whole entry): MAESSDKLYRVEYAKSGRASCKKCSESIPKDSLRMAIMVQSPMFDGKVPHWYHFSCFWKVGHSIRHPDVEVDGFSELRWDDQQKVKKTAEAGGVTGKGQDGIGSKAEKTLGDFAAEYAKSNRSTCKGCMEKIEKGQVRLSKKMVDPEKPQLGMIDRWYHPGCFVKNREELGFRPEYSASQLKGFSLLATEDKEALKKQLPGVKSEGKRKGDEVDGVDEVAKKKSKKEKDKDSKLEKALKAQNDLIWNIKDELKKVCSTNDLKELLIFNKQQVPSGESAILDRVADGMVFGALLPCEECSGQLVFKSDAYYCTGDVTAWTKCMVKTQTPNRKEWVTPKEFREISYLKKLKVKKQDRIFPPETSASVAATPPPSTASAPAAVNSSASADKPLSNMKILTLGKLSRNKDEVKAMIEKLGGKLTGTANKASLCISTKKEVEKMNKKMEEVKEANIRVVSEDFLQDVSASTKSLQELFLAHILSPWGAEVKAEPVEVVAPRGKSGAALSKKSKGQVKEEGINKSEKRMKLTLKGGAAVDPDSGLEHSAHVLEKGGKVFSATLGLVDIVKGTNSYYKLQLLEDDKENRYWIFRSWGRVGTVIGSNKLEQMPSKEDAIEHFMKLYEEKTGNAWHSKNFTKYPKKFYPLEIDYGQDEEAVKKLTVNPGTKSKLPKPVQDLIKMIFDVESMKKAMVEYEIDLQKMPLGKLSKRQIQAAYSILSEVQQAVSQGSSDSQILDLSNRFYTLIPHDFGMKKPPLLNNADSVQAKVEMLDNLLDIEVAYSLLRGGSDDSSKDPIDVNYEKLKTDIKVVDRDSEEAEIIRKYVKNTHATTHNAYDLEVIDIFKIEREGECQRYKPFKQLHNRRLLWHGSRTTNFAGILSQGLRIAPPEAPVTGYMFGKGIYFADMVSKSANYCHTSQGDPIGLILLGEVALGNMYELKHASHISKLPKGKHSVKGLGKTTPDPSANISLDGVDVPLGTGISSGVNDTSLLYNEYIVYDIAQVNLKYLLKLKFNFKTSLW

| Compound | IC50 [1] [nM] | IC50 [2] [nM] | IC50 (MDA-MB-436 cells) [nM] |
| --- | --- | --- | --- |
| CNC(=O)c1ccc(N2CCN(Cc3ccc4c(c3)[nH]c(=O)c3cn(C)nc34)CC2)c(C)n1 [Example 9, 7-((4-(2-methyl-6-(methylcarbamoyl)pyridin-3-yl)piperazin-1-yl)methyl)-2-methyl-2,5-dihydro-4H-pyrazolo[4,3-c]quinolin-4-one] | 2.45 | 3280 | 3.2 |
| CNC(=O)c1ccc(N2CCN(Cc3ccc4c(c3)[nH]c(=O)c3[nH]ccc34)CC2)c(C)n1 [Example 10, 7-((4-(2-methyl-6-(methylcarbamoyl)pyridin-3-yl)piperazin-1-yl)methyl)-3,5-dihydro-4H-pyrrolo[2,3-c]quinolin-4-one] | 8.24 | > 10000 | 15.5 |
| CNC(=O)c1ccc(N2CCN(Cc3ccc4c(c3)[nH]c(=O)c3ncoc34)CC2)c(C)n1 [Example 12, 7-((4-(2-methyl-6-(methylcarbamoyl)pyridin-3-yl)piperazin-1-yl)methyl)oxazolo[4,5-c]quinolin-4(5H)-one] | 1.11 | 6370 | 1.15 |
| CNC(=O)c1ccc(N2CCN(Cc3ccc4c(c3)[nH]c(=O)c3ocnc34)CC2)c(C)n1 [Example 14, 7-((4-(2-methyl-6-(methylcarbamoyl)pyridin-3-yl)piperazin-1-yl)methyl)oxazolo[5,4-c]quinolin-4(5H)-one] | 1.86 | > 10000 | 21.3 |
| CNC(=O)c1ccc(N2CCN(Cc3ccc4c(c3)[nH]c(=O)c3nc[nH]c34)CC2)c(C)n1 [Example 25, 7-((4-(2-methyl-6-(methylcarbamoyl)pyridin-3-yl)piperazin-1-yl)methyl)-1,5-dihydro-4H-imidazo[4,5-c]quinolin-4-one] | 3.39 | 2490 | 61.8 |
| CNC(=O)c1ccc(N2CCN(Cc3ccc4c(c3)[nH]c(=O)c3oncc34)CC2)c(C)n1 [Example 30, 7-((4-(2-methyl-6-(methylcarbamoyl)pyridin-3-yl)piperazin-1-yl)methyl)isoxazolo[5,4-c]quinolin-4(5H)-one] | 138 | > 10000 | > 100 |
| CNC(=O)c1ccc(N2CCN(Cc3ccc4c(c3)[nH]c(=O)c3c[nH]cc34)CC2)c(C)n1 [Example 34, 7-((4-(2-methyl-6-(methylcarbamoyl)pyridin-3-yl)piperazin-1-yl)methyl)-2,5-dihydro-4H-pyrrolo[3,4-c]quinolin-4-one] | 2.52 | 709 | 5.06 |
| CNC(=O)c1ccc(N2CCN(Cc3ccc4c(c3)[nH]c(=O)c3cn(C)cc34)CC2)c(C)n1 [Example 35, 7-((4-(2-methyl-6-(methylcarbamoyl)pyridin-3-yl)piperazin-1-yl)methyl)-2-methyl-2,5-dihydro-4H-pyrrolo[3,4-c]quinolin-4-one] | 2.92 | 584 | 8.24 |
| CNC(=O)c1ccc(N2CCN(Cc3ccc4c(c3)[nH]c(=O)c3c(C)noc34)CC2)c(C)n1 [Example 47, 7-((4-(2-methyl-6-(methylcarbamoyl)pyridin-3-yl)piperazin-1-yl)methyl)-3-methylisoxazolo[4,5-c]quinolin-4(5H)-one] | 0.86 | 504 | 12.2 |
| N#Cc1ccc(N2CCN(Cc3ccc4c([nH]c(=O)c5c(F)cnn54)c3F)CC2)c(F)n1 [Example 195, 7-((4-(2-fluoro-6-cyanopyridin-3-yl)piperazin-1-yl)methyl)-3,6-difluoropyrazolo[1,5-a]quinoxalin-4(5H)-one] | – | – | 8.59 |

Next, values leading:

| IC50 [1] [nM] | IC50 [2] [nM] | IC50 (MDA-MB-436 cells) [nM] | Compound |
| --- | --- | --- | --- |
| 4.43 | 2420 | > 100 | CNC(=O)c1ccc(N2CCN(Cc3ccc4c(c3)[nH]c(=O)c3ncn(C)c34)CC2)c(C)n1 [Example 26, 7-((4-(2-methyl-6-(methylcarbamoyl)pyridin-3-yl)piperazin-1-yl)methyl)-1-methyl-1,5-dihydro-4H-imidazo[4,5-c]quinolin-4-one] |
| 2.42 | 2060 | 19.4 | CNC(=O)c1ccc(N2CCN(Cc3ccc4c(c3)[nH]c(=O)c3c4ncn3C)CC2)c(C)n1 [Example 28, 7-((4-(2-methyl-6-(methylcarbamoyl)pyridin-3-yl)piperazin-1-yl)methyl)-3-methyl-3,5-dihydro-4H-imidazo[4,5-c]quinolin-4-one] |
| 0.64 | 278 | 9.02 | CNC(=O)c1ccc(N2CCN(Cc3ccc4c([nH]c(=O)c5cn[nH]c54)c3F)CC2)c(C)n1 [Example 45, 7-((4-(2-methyl-6-(methylcarbamoyl)pyridin-3-yl)piperazin-1-yl)methyl)-6-fluoro-1,5-dihydro-4H-pyrazolo[4,3-c]quinolin-4-one] |
| 0.9 | 30.6 | 8.45 | CNC(=O)c1ccc(N2CCN(Cc3ccc4c(c3)[nH]c(=O)c3c(F)c(C)nn34)CC2)c(C)n1 [Example 51, 7-((4-(2-methyl-6-(methylcarbamoyl)pyridin-3-yl)piperazin-1-yl)methyl)-3-fluoro-2-methylpyrazolo[1,5-a]quinoxalin-4(5H)-one] |
| 0.25 | 469 | 2.01 | CNC(=O)c1ccc(N2CCN(Cc3cc(F)c4c(c3)[nH]c(=O)c3cncn34)CC2)c(F)n1 [Example 53, 7-((4-(2-fluoro-6-(methylcarbamoyl)pyridin-3-yl)piperazin-1-yl)methyl)-9-fluoroimidazo[1,5-a]quinoxalin-4(5H)-one] |
| 0.52 | 648 | 5.85 | CNC(=O)c1ccc(N2CCN(Cc3cc(F)c4c(c3)[nH]c(=O)c3cncn34)CC2)c(Cl)n1 [Example 54, 7-((4-(2-chloro-6-(methylcarbamoyl)pyridin-3-yl)piperazin-1-yl)methyl)-9-fluoroimidazo[1,5-a]quinoxalin-4(5H)-one] |
| 0.47 | 776 | 14 | CNC(=O)c1ccc(N2CCN(Cc3ccc4c([nH]c(=O)c5cncn54)c3F)CC2)c(F)n1 [Example 55, 7-((4-(2-fluoro-6-(methylcarbamoyl)pyridin-3-yl)piperazin-1-yl)methyl)-6-fluoroimidazo[1,5-a]quinoxalin-4(5H)-one] |
| 0.68 | 1570 | 4.08 | CNC(=O)c1ccc(N2CCN(Cc3ccc4c([nH]c(=O)c5cncn54)c3F)CC2)c(Cl)n1 [Example 56, 7-((4-(2-chloro-6-(methylcarbamoyl)pyridin-3-yl)piperazin-1-yl)methyl)-6-fluoroimidazo[1,5-a]quinoxalin-4(5H)-one] |
| – | – | 15.4 | CNC(=O)c1ccc(N2CCN(Cc3ccc4c([nH]c(=O)c5c(F)cnn54)c3F)C[C@H]2C)c(F)n1 [Example 196, (R)-7-((4-(2-fluoro-6-(methylcarbamoyl)pyridin-3-yl)-3-methylpiperazin-1-yl)methyl)-3-6-difluoropyrazolo[1,5-a]quinoxalin-4(5H)-one] |
| – | – | > 100 | CNC(=O)c1ccc(N2CCN(Cc3ccc4c([nH]c(=O)c5c(C(C)C)cnn54)c3F)CC2)c(F)n1 [Example 203, 7-((4-(2-fluoro-6-(methylcarbamoyl)pyridin-3-yl)piperazin-1-yl)methyl)-3-isopropyl-6-fluoropyrazolo[1,5-a]quinoxalin-4(5H)-one] |
